Results taken from patent US11179398B2, “Purine derivative for use in the treatment or prevention of diseases caused by a nonsense mutation” (MUSÉUM NATIONAL D'HISTOIRE NATURELLE, priority 2016, dated 2021).
Entries after “also recorded” stand apart in the source; their conditions may differ. Read-outs that look alike come from different tables or passages of the source. Marks after values point to notes of the source that are not given here.

Experiments:
[1] = system: Salmonella typhimurium TA1535; conditions: positive control
Description: (§1) The positive controls used are:
(§2) The experiments were conducted once in triplicate.

[2] = system: Salmonella typhimurium TA100; conditions: positive control
Description: as §1, §2

L5178Y TK+/- cells [3] = test: In vitro test of the micronuclei; conditions: for treated/solvent ratio: positive control
Description: (§5) The cells used are L5178Y TK^+/− cells obtained from ATCC (American Type Culture Collection, Manassas, USA) via Biovalley (Marne-la-Vallée, France) for the induction of micronuclei.
(§6) In the test with metabolic activation, the culture medium is supplemented with 5% of the S9 mixture, thus the final concentration of S9 in the treated medium is of 2%.
(§7) The cells were treated for 24 hours in the absence of the S9 mixture or treated for 3 hours followed by 24 hours of culture without treatment when the S9 mixture was present in the culture medium.
(§8) The experiment was conducted and 1000 single-nucleus cells were analysed per culture.
(§9) The assessment of the cytotoxicity was determined by measuring the doubling of the cell population at the end of the experiment.

[4] = system: luciferase gene carrying a UGA premature stop codon; test: Luciferase readthrough assay in transfected HeLa cells, UGA construct; type: cell-based, human; conditions: for correcting activity of nonsense mutations (luciferase activity): 25 μM, 24 hours; for concentration at which the molecule starts to significantly correct the nonsense mutation: dose-response 0.39 μM to 600 μM; for concentration of maximum correction effectiveness: luciferase activity
Description: The DMSO represents the negative control.

Calu-6 cells [5] = test: Cellular growth and apoptosis measurement; type: cell-based
Description: Briefly, the cells are removed from their support using typisin and centrifuged for 5 minutes at 200 g.

[6] = system: luciferase gene carrying a premature UGA stop codon; test: Synergy with clitocin, luciferase UGA readthrough assay in HeLa cells; type: cell-based, human; conditions: DAP alone at 25 μM
Description: The luciferase activity is measured by adding the SteadyLite plus substrate (Perkin Elmer) to the culture medium and the plates are read with a Tristar luminometer (Berthold). The plate is read twice.

[7] = system: gene TP53 carrying an UGA nonsense mutation at codon 196 (Calu-6 cells); test: Western blot of p53 re-expression in Calu-6 cells; type: cell-based
Description: (§3) For the purpose of validating the above screening results, the correction of nonsense mutations was measured for endogenous genes carrying nonsense mutations in an immortalised cell line of lung cancer Calu-6 (ATCC, USA) comprising a UGA mutation in the codon 196 of the gene TP53 (FIG. 2A), an immortalised cell line Caco-2 carrying a UAG mutation at the level of codon 204 (FIG. 2B) and an immortalised cell line Caov-3 carrying a UAA nonsense mutation at the level of codon 136 (FIG. 2C).
(§4) The proteins are extracted from the cell in a lysis buffer, then analysed by SDS-PAGE gel at 10% as previously described in Gonzalez-Hilarion et al. (2012). Briefly, after migration, the proteins are transferred onto a nitrocellulose membrane and placed in the presence of an anti-p53 antibody (D01; Santa-Cruz), and then of a secondary anti-mouse antibody (Jackson Immuno Research).

[8] = system: luciferase gene carrying a UAA premature stop codon; test: Luciferase readthrough assay in transfected HeLa cells, UAA construct; conditions: 25 μM
Description: (§10) The position of the premature stop codon is such that if the protein synthesis stops at the premature stop codon, the synthesised truncated luciferase protein is not functional.

[9] = system: gene TP53 carrying an UAA nonsense mutation at codon 136 (Caov-3 cells); test: Western blot of p53 re-expression in Caov-3 cells; type: cell-based
Description: as §3, §4

[10] = system: p53 target genes p21 and Noxa in Calu-6 cells; test: Expression of p53 target genes p21 and Noxa by RT-PCR; type: cell-based; conditions: 20 hours
Description: The RNAs were purified with RNazol (MRC) and underwent a RT-PCR as described in Gonzalez-Hilarion et al. (2012). The resulting cDNA were then amplified after 35 cycles of PCR using the p21 mRNA primers (sense: 5′-[…]-3′; SEQ ID NO: 5; antisense 5′-[…]-3′; SEQ ID NO: 6); GADD45 mRNA (sense: 5′-[…]-3′; SEQ ID NO: 7; antisense 5′-[…]-3′; SEQ ID NO: 8); NOXA mRNA (sense: 5′-[…]-3′; SEQ ID NO: 9; antisense 5′-[…]-3′; SEQ ID NO: 10).

L5178Y TK+/- cells [11] = conditions: mouse
Description: as §5, §6, §7, §8, §9

[12] = system: NMD (mRNA p53 in Calu-6 cells); test: NMD inhibition: RT-PCR of p53 mRNA carrying a UGA nonsense mutation; type: cell-based; conditions: 6.25 μM, 25 μM, 24 hours
Description: The RNAs were purified with RNazol (MRC) and underwent a RT-PCR as described in Gonzalez-Hilarion et al. (2012). The resulting cDNA were then amplified after 35 cycles of PCR using the p53 sense primer (5′-[…]-3′; SEQ ID NO: 1), antisense p53 (5′-[…]-3′; SEQ ID NO: 2), sense GAPDH (5′-[…]-3′; SEQ ID NO: 3), antisense GAPDH (5′-[…]-3′; SEQ ID NO: 4).

[13] = system: gene TP53 carrying an UAG mutation at codon 204 (Caco-2 cells); test: Western blot of p53 re-expression in Caco-2 cells; type: cell-based
Description: as §3, §4

Calu-6 cells [14] = test: Phenotype of culture cells under white light microscope; type: cell-based
[15] = system: luciferase gene carrying a UAG premature stop codon; test: Luciferase readthrough assay in transfected HeLa cells, UAG construct; conditions: 25 μM
Description: as §10

[16] = system: Salmonella typhimurium TA98; test: Compensatory mutation test on bacteria, TA98; conditions: positive control, TA98, with S9, 1.00 μg/well
Description: (§11) The test was conducted in the absence or presence of a metabolic solution called S9 mixture (S9 mixture of rat liver treated with aroclor. The concentration of the S9 fraction in the S9 mixture is of 10%).
(§12) The solvent used is dimethyl sulfoxide (DMSO), the volume containing the molecule to be tested or DMSO alone is of 25 μl per well.
(§13) For the tests conducted in the presence of the S9 mixture, 2-anthranine at 1 μg/well for the TA98, TA100 and TA1535 strains or of 5 μg/well for the TA102 or TA1537 strains.
(§14) The treatment in the absence of presence of the S9 mixture was conducted by adding it directly in the wells.

[17] = system: Salmonella typhimurium TA102; conditions: positive control, TA102, with S9, 5.00 μg/well
Description: as §1, §2

[18] = system: Salmonella typhimurium TA1537; test: Compensatory mutation test on bacteria, TA1537; conditions: positive control, TA1537, with S9, 5.0 μg/well
Description: as §11, §12, §13, §14

[19] = TA1535, without S9, 0.5 μg/well

For `[N-]=[N+]=[N-]` [NaN3, sodium azide], which “average number of revertants per well” value [1, 19] is on record?
The value was 206.7.

And the treated/solvent ratio [1, 19]?
Its treated/solvent ratio is 77.5.

What about the “average number of revertants per well” value ([2]; TA100, without S9, 1.0 μg/well) of the same molecule?
Its value is 232.3.

What about the treated/solvent ratio ([2]; TA100, without S9, 1.0 μg/well) of the same molecule?
Its treated/solvent ratio is 5.5.

With `CO[C@@]12[C@H](COC(N)=O)C3=C(C(=O)C(C)=C(N)C3=O)N1C[C@@H]1N[C@@H]12` [MMC, mitomycin C, reference compound] as the molecule, how does the treated/solvent ratio (L5178Y TK+/- cells [3]; without S9 mix) read?
Its treated/solvent ratio is 100.0 **.

With `O=C(O)c1cccc(-c2noc(-c3ccccc3F)n2)c1` [ataluren] as the molecule, how does the “correcting activity of nonsense mutations (luciferase activity)” value (“correcting activity” below) ([4]; HeLa cells) read?
Its value is “ineffective; also recorded: no correction activity”.

Which treated/solvent ratio (L5178Y TK+/- cells [3]; with S9 mix, 6 μg/mL) does the source give for `O=P1(N(CCCl)CCCl)NCCCO1` (stereo not drawn) [CPA, cyclophosphamide, reference compound] here?
Its treated/solvent ratio is 60.0 **.

For `Sc1ncnc2nc[nH]c12` [6-mercaptopurine], which “correcting activity” value ([4]; HeLa cells) is on record?
The value was “do not have a correcting activity; also recorded: no correction activity”.

For `Sc1ncc2[nH]cnc2n1` [2-mercaptopurine], which “correcting activity” value ([4]; HeLa cells) is on record?
Its value is “do not have a correcting activity; also recorded: no correction activity”.

Which “concentration at which the molecule starts to significantly correct the nonsense mutation” value [4] does the source give for `CN[C@@H]1[C@@H](O)[C@@H](O[C@@H]2[C@@H](O)[C@H](O[C@H]3O[C@H]([C@@H](C)O)[C@@H](O)[C@H](O)[C@H]3N)[C@@H](N)C[C@H]2N)OC[C@]1(C)O` [G418] here?
Its value is 6.25 µM.

And the “concentration of maximum correction effectiveness” value ([4]; HeLa cells)?
Its value is > 600 µM.

What about the “percentage of apoptotic cells” value (Calu-6 cells [5]; G418 600 μM, from the 4th day of culture) of the same molecule?
The value was > 30%.

With `Nc1nc(N)c2nc[nH]c2n1` [DAP, 2,6-diaminopurine] as the molecule, how does the luminescence measured [6] read?
The luminescence measured was 50,000.

And the “synthesis of readthrough protein” value ([7]; 25 μM of DAP versus G418 600 μM)?
The value was “greater than with G418”.

What about the “minimal concentration at which wild-size protein p53 (p53 FL) is detected” value ([7]; Calu-6 cells, 20 hours, Western blot) of the same molecule?
Its value is 6.25 µM.

And the “concentration of maximum production of p53 FL” value ([7]; Calu-6 cells, Western blot)?
The value was 25 µM.

And the “effect on the UAA codon (luciferase activity)” value [8]?
The value was “no effect”.

What about the “re-expression of protein p53” value [9] of the same molecule?
The value was “does not make it possible to re-express the protein p53”.

What about the “doses with severe cytotoxicity” value (L5178Y TK+/- cells [3]; in the absence of the S9 mixture, 24 hours) of the same molecule?
The value was “greater than 0.15 mM”.

And the “doses with slight cytotoxicity” value (L5178Y TK+/- cells [3]; in the presence of the S9 mixture, 3 hours + 24 hours)?
Its value is “greater than 0.07 mM”.

What about the “genotoxic effect (frequency of cells containing micronuclei)” value (L5178Y TK+/- cells [3]; in the presence or absence of the S9 mixture, listed as 2,6-DAP) of the same molecule?
Its value is “no genotoxic effect; also recorded: does not induce any damage to the chromosomes or cell machinery involved in the cell division”.

What about the “concentration from which the expression of the target genes of p53 increases” value [10] of the same molecule?
Its value is ≥ 6.25 µM.

What about the “DP (% of the control substance)” value (L5178Y TK+/- cells [11]; 3 h, 0.01 nM) of the same molecule?
Its value is 76 % of the control substance.

And the “DP (% of the control substance)” value (L5178Y TK+/- cells [11]; 3 h, 0.02 nM)?
The value was 89 % of the control substance.

What about the “DP (% of the control substance)” value (L5178Y TK+/- cells [11]; 3 h, 0.04 nM) of the same molecule?
The value was 91 % of the control substance.

And the “DP (% of the control substance)” value (L5178Y TK+/- cells [11]; 3 h, 0.07 nM)?
Its value is 74 % of the control substance.

And the “DP (% of the control substance)” value (L5178Y TK+/- cells [11]; 3 h, 0.29 nM)?
Its value is 73 % of the control substance.

What about the “DP (% of the control substance)” value (L5178Y TK+/- cells [11]; 3 h, 0.58 nM) of the same molecule?
Its value is 54 % of the control substance.

What about the “DP (% of the control substance)” value (L5178Y TK+/- cells [11]; 3 h, 2.33 nM) of the same molecule?
Its value is 44 % of the control substance.

And the “DP (% of the control substance)” value (L5178Y TK+/- cells [11]; 3 h, 4.66 nM)?
The value was 40 % of the control substance.

What about the “reduction of the doubling of the population” value (L5178Y TK+/- cells [11]; 24 h) of the same molecule?
Its value is 79-100%.

What about the “DP (% of the control substance)” value (L5178Y TK+/- cells [11]; 24 h, 0.01 nM) of the same molecule?
The value was 91 % of the control substance.

And the “DP (% of the control substance)” value (L5178Y TK+/- cells [11]; 24 h, 0.02 nM)?
Its value is 121 % of the control substance.

What about the “DP (% of the control substance)” value (L5178Y TK+/- cells [11]; 24 h, 0.04 nM) of the same molecule?
Its value is 78 % of the control substance.

And the “DP (% of the control substance)” value (L5178Y TK+/- cells [11]; 24 h, 0.07 nM)?
Its value is 97 % of the control substance.

What about the “correcting activity” value ([4]; HeLa cells) of the same molecule?
Its value is “able to correct the UGA stop codons much more effectively than G418 or ataluren”.

What about the “correction of the nonsense UGA mutation (luciferase activity) compared with G418 at 25 μM” value ([4]; DAP at 25 μM, HeLa cells) of the same molecule?
The value was “eighteen times more effective”.

What about the “correction of the nonsense UGA mutation (luciferase activity) compared with G418 at 2400 μM” value ([4]; DAP at 25 μM, HeLa cells) of the same molecule?
The value was “more than three times more effective”.

What about the EC50 ([4]; Homo sapiens, HeLa) of the same molecule?
The EC50 was 54 µM.

And the “correction of the UGA nonsense mutation compared with G418” value ([4]; both at 6.25 μM)?
Its value is “five times higher”.

What about the “concentration at which the molecule starts to significantly correct the nonsense mutation” value [4] of the same molecule?
Its value is 6.25 µM.

And the “concentration of maximum correction effectiveness” value ([4]; HeLa cells)?
The value was 100 µM.

And the “inhibition of NMD (stabilising an mRNA carrying a premature stop codon)” value [12]?
Its value is “not an NMD inhibitor”.

And the “re-expression of protein p53” value [13]?
Its value is “does not make it possible to re-express the protein”.

What about the “percentage of apoptotic cells” value (Calu-6 cells [5]; DAP 6.25 μM or 25 μM, D4 to D10) of the same molecule?
The value was ≤ 15%.

What about the “concentration from which more dying cells (round appearance) are observed” value (Calu-6 cells [14]) of the same molecule?
The value was ≥ 600 µM.

What about the “effect on the UAG codon (luciferase activity)” value [15] of the same molecule?
Its value is “no effect”.

Which “average number of revertants per well” value [16] does the source give for `Nc1ccc2cc3ccccc3cc2c1` [2AM, 2-anthramine] here?
Its value is 686.7.

And the treated/solvent ratio [16]?
The treated/solvent ratio was 98.1.

What about the “average number of revertants per well” value ([1]; TA1535, with S9, 1.0 μg/well) of the same molecule?
The value was 137.7.

What about the treated/solvent ratio ([1]; TA1535, with S9, 1.0 μg/well) of the same molecule?
Its treated/solvent ratio is 41.3.

And the “average number of revertants per well” value [17]?
Its value is 91.0.

And the treated/solvent ratio [17]?
Its treated/solvent ratio is 2.0.

And the “average number of revertants per well” value ([2]; TA100, with S9, 1.0 μg/well)?
The value was 696.0.

And the treated/solvent ratio ([2]; TA100, with S9, 1.0 μg/well)?
Its treated/solvent ratio is 17.4.

What about the “average number of revertants per well” value [18] of the same molecule?
The value was 36.0.

And the treated/solvent ratio [18]?
The treated/solvent ratio was 13.5.
